Data: PMC12298827, “Subchronic Toxicities of Four Per- and Polyfluoroalkyl Substances (PFASs) by Oral Exposure in Sprague–Dawley Rats” (Toxics, 2025)

Test system: male and female Sprague–Dawley rats
Assay: 90-day subchronic oral gavage toxicity study
Format: in vivo, rat
Set-up: key to NOEL, absolute liver weight increase / LOEL, absolute liver weight increase / NOEL, relative kidney weight increase / LOEL, relative kidney weight increase / NOEL, absolute kidney weight increase / LOEL, absolute kidney weight increase / NOEL, relative liver weight increase / LOEL, relative liver weight increase: NR: no response, no statistically significant dose-dependent changes
Experimental: Subchronic (90-day) studies were performed in accordance with current U.S. EPA’s Toxic Substances Control Act Good Laboratory Practice (GLP) Standards, with the following two general exceptions to the GLP guidelines: Analysis of the dose formulations was conducted according to RTI-approved Standard Operating Procedures, and corn oil (the vehicle) was not characterized (certificate of analysis from the vendor is available in the appendices to the final reports). Male and female Sprague–Dawley rats (five dose levels plus a control, n = 10/sex/dose group, corn oil vehicle dose volume of 3 mL/kg; oral gavage) were used in these studies, and the rats were euthanized on SD 91. The dose levels for PFHI were 0, 12.5, 25, 50, 100, and 200 mg/kg-day. The dose levels for MHFPK were 0, 18.8, 37.5, 75, 150, and 300 mg/kg-day. The dose levels for PFNAC were 0, 0.1, 0.3, 1.0, 3.0, and 10 mg/kg-day for male rats and 0, 0.3, 1.0, 3.0, 10, and 30 mg/kg-day for female rats. For CTFPA, the dose levels were 0, 1.9, 3.8. 7.5, 15, and 30 mg/kg-day for male rats and 0, 6.3, 12.5, 25, 50, and 100 mg/kg-day for female rats. For each PFAS, three batches of dosing solution were prepared. The time between the batch preparation of the dosing solutions ranged between 29 and 39 days. Blood samples were collected from all the rats at termination for serum chemistry, hematology, coagulation, and the analysis of the parent PFAS chemical in the plasma. In vivo data collection and further detail on the endpoints examined postmortem are described below.
The rats were observed twice daily for morbidity and mortality throughout the study period. At least once prior to randomization to test groups and weekly thereafter, the rats were physically examined, and bodyweights were obtained. Feed consumption was quantified weekly starting on SD 1.
Neurotoxicity was evaluated using the functional observational battery (FOB) and measuring locomotor activity (LMA) 2–4 h post dosing on SDs 78–80 and 80–84, respectively. For both the 14- and 90-day studies, an ophthalmologic examination was conducted prior to randomization and near the end of the study, using indirect ophthalmoscopy and slit–lamp biomicroscopy (as needed) after the administration of a mydriatic solution.
Hematology, biochemistry, and coagulation endpoints were measured at the termination of the study. A Siemens Advia 2120i hematology analyzer (Siemens Healthineers, Erlangen, Germany) was used to measure (or calculate) the parameters related to the complete blood count, leukocyte differential count, and reticulocyte count. The hematology parameters are listed and described in Table 2. The prothrombin time […] and activated partial thromboplastin time (APTT) were measured using an Instrumentation Laboratory (Bedford, MA, USA) ACL Elite Pro coagulation analyzer (laser–nephelometric centrifugal method).
At necropsy, the rats were visually examined for external abnormalities and organ weights (absolute and relative to the BW and brain weight), which were recorded (paired organs weighed together). The tissues were preserved in 10% neutral buffered formalin (NBF), except for the ocular tissues, testes, and epididymides, which were preserved in modified Davidson’s fixative and later transferred to 10% NBF. Bone marrow smears were prepared from the femurs, and the slides were air-dried, fixed in methanol, stained, and stored at room temperature for possible future evaluation. The preserved tissues were embedded in paraffin, sectioned, stained with hematoxylin and eosin, and examined by a board-certified veterinary pathologist.
Statistical analysis was performed using Provantis™ Version 10 or greater (Instem LSS, Limited; Stone, Staffordshire, UK). Differences among the treatment groups compared to the control were evaluated using one-way analysis of variance (ANOVA) if the underlying assumptions of a normal distribution (Shapiro–Wilk test) and the homogeneity of the variance (Levene’s test) were satisfied. […]

FC(F)(F)C(F)(F)C(F)(F)C(F)(F)CCI [PFHI, 1H,1H,2H,2H-Perfluorohexyl iodide]
Bodyweight (BW) and bodyweight gain (90-day, both sexes, all doses): None in females; dose-dependent reduced BW changes in males in all the dose groups, but BW gain on SDs 1-90 was not significantly affected
Clinical observations (90-day, both sexes, all doses): None
Coagulation endpoints (90-day, both sexes, all doses): Dose-dependent minimal prolongations in PT (in males at ≥12.5 mg/kg-day and in females at ≥25 mg/kg-day
Feed consumption (90-day, both sexes, all doses): No changes in males; increased feed consumption in females at 25, 50, and 100 mg/kg-day but not at 200 mg/kg-day
Functional observational battery (90-day, both sexes, all doses): No changes
Gross lesions (90-day, both sexes, all doses): None considered as PFHI related
Hematology (90-day, both sexes, all doses): Minimal decreases in reticulocytes in males at ≥50 mg/kg-day; minimal increases in MPV in females and sporadically in males at 200 mg/kg-day and in both sexes at 50 and 100 mg/kg-day
Histopathology (90-day, both sexes, all doses): The kidney and liver ^5 of males at ≥100 mg/kg-day and the liver of females at 200 mg/kg-day
Locomotor activity (90-day, both sexes, all doses): No effects
Morbidity and mortality (90-day, both sexes, all doses): None
Ophthalmology (90-day, both sexes, all doses): No ocular lesions
Organ weight changes (90-day, both sexes, all doses): Mean absolute and/or relative dose-dependent organ weight increases in the liver of females at ≥100 mg/kg-day and males at ≥25 mg/kg-day and kidney weight increases only in males at ≥100 mg/kg-day ^5
BMD10, absolute liver weight increase (female): 57.8 mg/kg-day
BMDL, absolute liver weight increase (female): 8.1 mg/kg-day
LOEL, absolute kidney weight increase (female): NR
LOEL, absolute liver weight increase (female): 200 mg/kg-day
LOEL, relative kidney weight increase (female): NR
LOEL, relative liver weight increase (female): 100 mg/kg-day
NOEL, absolute kidney weight increase (female): NR
NOEL, absolute liver weight increase (female): 100 mg/kg-day
NOEL, relative kidney weight increase (female): NR
NOEL, relative liver weight increase (female): 50 mg/kg-day
% BW Gain (female, 12.5 mg/kg-day): 61.51%
% Diff, % BW Gain (female, 12.5 mg/kg-day): 1.61%
% Diff, Total BW change (female, 12.5 mg/kg-day): 1.06%
% Diff, Total Food Consumed (female, 12.5 mg/kg-day): 0.12%
A/G (female, 12.5 mg/kg-day): 1.09±0.05 ratio
ALB (female, 12.5 mg/kg-day): 4.28 ± 0.37 g/dL
ALPi (female, 12.5 mg/kg-day): 42.8±13.0 U/L
APTT (female, 12.5 mg/kg-day): 18.80 s
BUN (female, 12.5 mg/kg-day): 16.8 ± 2.7 mg/dL
CHOL (female, 12.5 mg/kg-day): 110.5 ± 32.7 mg/dL
GLOB (female, 12.5 mg/kg-day): 3.94 ± 0.25 g/dL
GLUC (female, 12.5 mg/kg-day): 138.0 ± 29.9 mg/dL
HCT (female, 12.5 mg/kg-day): 46.90±1.85%
HGB (female, 12.5 mg/kg-day): 14.91 ± 0.54 g/dL
Kidney Weight (female, 12.5 mg/kg-day): 1.83 g
Kidney/Body Weight (female, 12.5 mg/kg-day): 0.58%
Kidney/Brain Weight (female, 12.5 mg/kg-day): 89.5%
Liver Weight (female, 12.5 mg/kg-day): 8.53 g
Liver/Body Weight (female, 12.5 mg/kg-day): 2.68%
Liver/Brain Weight (female, 12.5 mg/kg-day): 416%
MPV (female, 12.5 mg/kg-day): 7.10 ± 0.30 fL
PT (female, 12.5 mg/kg-day): 13.34 s
Total BW change (female, 12.5 mg/kg-day): 124.60 g
Total Food Consumed (female, 12.5 mg/kg-day): 1474 g
% BW Gain (female, 25 mg/kg-day): 60.67%
% Diff, % BW Gain (female, 25 mg/kg-day): 0.22%
% Diff, Total BW change (female, 25 mg/kg-day): 1.70%
% Diff, Total Food Consumed (female, 25 mg/kg-day): 7.27%
A/G (female, 25 mg/kg-day): 1.07±0.11 ratio
ALB (female, 25 mg/kg-day): 4.02 ± 0.39 g/dL
ALPi (female, 25 mg/kg-day): 54.9±21.9 U/L
APTT (female, 25 mg/kg-day): 18.59 s
BUN (female, 25 mg/kg-day): 16.2 ± 2.1 mg/dL
CHOL (female, 25 mg/kg-day): 114.9 ± 14.1 mg/dL
GLOB (female, 25 mg/kg-day): 3.78 ± 0.16 g/dL
GLUC (female, 25 mg/kg-day): 153.4 ± 30.6 mg/dL
HCT (female, 25 mg/kg-day): 48.01±1.96%
HGB (female, 25 mg/kg-day): 15.38 ± 0.54 g/dL
Kidney Weight (female, 25 mg/kg-day): 1.83 g
Kidney/Body Weight (female, 25 mg/kg-day): 0.57%
Kidney/Brain Weight (female, 25 mg/kg-day): 88.2%
Liver Weight (female, 25 mg/kg-day): 8.66 g
Liver/Body Weight (female, 25 mg/kg-day): 2.71%
Liver/Brain Weight (female, 25 mg/kg-day): 417%
MPV (female, 25 mg/kg-day): 7.32 ± 0.30 fL
PT (female, 25 mg/kg-day): 13.51 s
Total BW change (female, 25 mg/kg-day): 125.38 g
Total Food Consumed (female, 25 mg/kg-day): 1579 g
% BW Gain (female, 50 mg/kg-day): 65.42%
% Diff, % BW Gain (female, 50 mg/kg-day): 8.07%
% Diff, Total BW change (female, 50 mg/kg-day): 7.25%
% Diff, Total Food Consumed (female, 50 mg/kg-day): 8.31%
A/G (female, 50 mg/kg-day): 1.09±0.09 ratio
ALB (female, 50 mg/kg-day): 4.27 ± 0.46 g/dL
ALPi (female, 50 mg/kg-day): 43.7±5.5 U/L
APTT (female, 50 mg/kg-day): 20.46 s
BUN (female, 50 mg/kg-day): 15.7 ± 2.2 mg/dL
CHOL (female, 50 mg/kg-day): 119.7 ± 25.4 mg/dL
GLOB (female, 50 mg/kg-day): 3.91 ± 0.26 g/dL
GLUC (female, 50 mg/kg-day): 157.1 ± 16.7 mg/dL
HCT (female, 50 mg/kg-day): 47.80±2.45%
HGB (female, 50 mg/kg-day): 15.23 ± 0.72 g/dL
Kidney Weight (female, 50 mg/kg-day): 1.85 g
Kidney/Body Weight (female, 50 mg/kg-day): 0.57%
Kidney/Brain Weight (female, 50 mg/kg-day): 93.9%
Liver Weight (female, 50 mg/kg-day): 8.92 g
Liver/Body Weight (female, 50 mg/kg-day): 2.76%
Liver/Brain Weight (female, 50 mg/kg-day): 454%
MPV (female, 50 mg/kg-day): 7.47 ± 0.44 fL
PT (female, 50 mg/kg-day): 13.48 s
Total BW change (female, 50 mg/kg-day): 132.23 g
Total Food Consumed (female, 50 mg/kg-day): 1595 g
% BW Gain (female, 100 mg/kg-day): 62.41%
% Diff, % BW Gain (female, 100 mg/kg-day): 3.09%
% Diff, Total BW change (female, 100 mg/kg-day): 5.03%
% Diff, Total Food Consumed (female, 100 mg/kg-day): 13.5%
A/G (female, 100 mg/kg-day): 1.08±0.06 ratio
ALB (female, 100 mg/kg-day): 4.32 ± 0.36 g/dL
ALPi (female, 100 mg/kg-day): 49.7±18.4 U/L
APTT (female, 100 mg/kg-day): 17.57 s
BUN (female, 100 mg/kg-day): 16.7 ± 2.6 mg/dL
CHOL (female, 100 mg/kg-day): 122.7 ± 15.6 mg/dL
GLOB (female, 100 mg/kg-day): 4.00 ± 0.27 g/dL
GLUC (female, 100 mg/kg-day): 153.8 ± 19.2 mg/dL
HCT (female, 100 mg/kg-day): 46.45±1.01%
HGB (female, 100 mg/kg-day): 14.77 ± 0.32 g/dL
Kidney Weight (female, 100 mg/kg-day): 1.84 g
Kidney/Body Weight (female, 100 mg/kg-day): 0.58%
Kidney/Brain Weight (female, 100 mg/kg-day): 89.7%
Liver Weight (female, 100 mg/kg-day): 9.17 g
Liver/Body Weight (female, 100 mg/kg-day): 2.85%
Liver/Brain Weight (female, 100 mg/kg-day): 447%
MPV (female, 100 mg/kg-day): 7.34 ± 0.51 fL
PT (female, 100 mg/kg-day): 13.79 s
Total BW change (female, 100 mg/kg-day): 129.49 g
Total Food Consumed (female, 100 mg/kg-day): 1671 g
% BW Gain (female, 200 mg/kg-day): 53.53%
% Diff, % BW Gain (female, 200 mg/kg-day): -11.58%
% Diff, Total BW change (female, 200 mg/kg-day): -11.94%
% Diff, Total Food Consumed (female, 200 mg/kg-day): 6.33%
A/G (female, 200 mg/kg-day): 1.15±0.03 ratio
ALB (female, 200 mg/kg-day): 4.69 ± 0.33 g/dL
ALPi (female, 200 mg/kg-day): 46.9±15.3 U/L
APTT (female, 200 mg/kg-day): 19.34 s
BUN (female, 200 mg/kg-day): 18.0 ± 3.3 mg/dL
CHOL (female, 200 mg/kg-day): 154.8 ± 35.9 mg/dL
GLOB (female, 200 mg/kg-day): 4.10 ± 0.33 g/dL
GLUC (female, 200 mg/kg-day): 155.2 ± 21.4 mg/dL
HGB (female, 200 mg/kg-day): 14.58 ± 0.80 g/dL
Kidney Weight (female, 200 mg/kg-day): 1.83 g
Kidney/Body Weight (female, 200 mg/kg-day): 0.61%
Kidney/Brain Weight (female, 200 mg/kg-day): 91.3%
Liver Weight (female, 200 mg/kg-day): 9.65 g
Liver/Body Weight (female, 200 mg/kg-day): 3.20%
